In PubChem BioAssay AID1259407 (Chemical Carcinogenesis Research Information System (CCRIS), 2018):
Calls of active or inactive are those of the source. How the calls were made is not given here.

Tested on: CCRIS mutagenicity, Ames/micronucleus/aberration tests
Test: CCRIS mutagenicity studies
[1] = Test System: AMES SALMONELLA TYPHIMURIUM, Strain/Indicator: TA97, Metabolic Activation: NONE, Method: PREINCUBATION
[2] = Test System: AMES SALMONELLA TYPHIMURIUM, Strain/Indicator: TA98, Metabolic Activation: HAMSTER, LIVER, S-9, AROCLOR 1254 (10 OR 30%), Method: PREINCUBATION
[3] = Test System: AMES SALMONELLA TYPHIMURIUM, Strain/Indicator: TA98, Metabolic Activation: NONE, Method: PREINCUBATION
[4] = Test System: AMES SALMONELLA TYPHIMURIUM, Strain/Indicator: TA98, Metabolic Activation: RAT, LIVER, S-9, AROCLOR 1254 (10 OR 30%), Method: PREINCUBATION
[5] = Test System: AMES SALMONELLA TYPHIMURIUM, Strain/Indicator: TA100, Metabolic Activation: HAMSTER, LIVER, S-9, AROCLOR 1254 (10 OR 30%), Method: PREINCUBATION
[6] = Test System: AMES SALMONELLA TYPHIMURIUM, Strain/Indicator: TA100, Metabolic Activation: NONE, Method: PREINCUBATION
[7] = Test System: AMES SALMONELLA TYPHIMURIUM, Strain/Indicator: TA1535, Metabolic Activation: NONE, Method: PREINCUBATION
[8] = Test System: AMES SALMONELLA TYPHIMURIUM, Strain/Indicator: TA1535, Metabolic Activation: RAT, LIVER, S-9, AROCLOR 1254 (10 OR 30%), Method: PREINCUBATION
[9] = Test System: AMES SALMONELLA TYPHIMURIUM, Strain/Indicator: TA100, Metabolic Activation: NONE, Method: STANDARD PLATE

Compound: Cc1ccc(S(=O)(=O)NC(=O)NN2CCCCCC2)cc1
- mutagenic call (Test System: AMES SALMONELLA TYPHIMURIUM, Strain/Indicator: TA97, Metabolic Activation: HAMSTER, LIVER, S-9, AROCLOR 1254 (10%), Method: PREINCUBATION): inactive; negative
- mutagenic call (Test System: AMES SALMONELLA TYPHIMURIUM, Strain/Indicator: TA97, Metabolic Activation: HAMSTER, LIVER, S-9, AROCLOR 1254 (30%), Method: PREINCUBATION): inactive; negative
- mutagenic call [1]: inactive; negative
- mutagenic call (Test System: AMES SALMONELLA TYPHIMURIUM, Strain/Indicator: TA97, Metabolic Activation: RAT, LIVER, AROCLOR 1254 (30%), Method: PREINCUBATION): inactive; negative
- mutagenic call (Test System: AMES SALMONELLA TYPHIMURIUM, Strain/Indicator: TA97, Metabolic Activation: RAT, LIVER, S-9, AROCLOR 1254 (10%), Method: PREINCUBATION): inactive; negative
- mutagenic call [2]: inactive; negative
- mutagenic call [3]: inactive; negative
- mutagenic call [4]: inactive; negative
- mutagenic call [5]: inactive; negative
- mutagenic call [6]: inactive; negative
- mutagenic call (Test System: AMES SALMONELLA TYPHIMURIUM, Strain/Indicator: TA100, Metabolic Activation: RAT, LIVER, S-9, AROCLOR 1254 (10%), Method: PREINCUBATION): inactive; negative
- mutagenic call (Test System: AMES SALMONELLA TYPHIMURIUM, Strain/Indicator: TA1535, Metabolic Activation: HAMSTER, LIVER, S-9, AROCLOR 1254 (10%), Method: PREINCUBATION): inactive; negative
- mutagenic call (Test System: AMES SALMONELLA TYPHIMURIUM, Strain/Indicator: TA1535, Metabolic Activation: HAMSTER, LIVER, S-9, AROCLOR 1254 (30%), Method: PREINCUBATION): active; positive
- mutagenic call [7]: inactive; negative
- mutagenic call [8]: inactive; negative

Compound: O=[N+]([O-])c1cc([N+](=O)[O-])c2ccccc2c1
- mutagenic call (Test System: AMES SALMONELLA TYPHIMURIUM, Strain/Indicator: TA98, Metabolic Activation: HAMSTER, LIVER, S-9, AROCLOR 1254 (30%), Method: PREINCUBATION): active; positive
- mutagenic call [3]: active; positive
- mutagenic call (Test System: AMES SALMONELLA TYPHIMURIUM, Strain/Indicator: TA98, Metabolic Activation: RAT, LIVER, S-9, AROCLOR 1254 (30%), Method: PREINCUBATION): active; positive
- mutagenic call (Test System: AMES SALMONELLA TYPHIMURIUM, Strain/Indicator: TA100, Metabolic Activation: HAMSTER, LIVER, S-9, AROCLOR 1254 (30%), Method: PREINCUBATION): active; positive
- mutagenic call [6]: active; positive
- mutagenic call (Test System: AMES SALMONELLA TYPHIMURIUM, Strain/Indicator: TA100, Metabolic Activation: RAT, LIVER, S-9, AROCLOR 1254 (30%), Method: PREINCUBATION): active; positive

Compound: CCCOS(C)(=O)=O
- mutagenic call (End Point: IN VITRO MICRONUCLEUS, Test System: MOUSE LYMPHOMA L5178Y CELLS, Metabolic Activation: NONE): active; positive
- mutagenic call (End Point: IN VITRO MICRONUCLEUS, Test System: MOUSE LYMPHOMA L5178Y CELLS, Metabolic Activation: RAT, LIVER, S-9): inactive; negative; authors report results as weakly positive
- mutagenic call (End Point: In vitro micronucleus, Test System: Chinese Hamster Ovary (CHO-WBL) cells, Metabolic Activation: None): active; positive (p<0.01)
- mutagenic call [9]: active; positive
- mutagenic call (Test System: AMES SALMONELLA TYPHIMURIUM, Strain/Indicator: TA100, Metabolic Activation: RAT, LIVER, S-9, Method: STANDARD PLATE): active; positive

Compound: CCCCC(=O)Nc1snc2ccc(Cl)cc12
- mutagenic call [9]: inactive; negative
- mutagenic call (Test System: AMES SALMONELLA TYPHIMURIUM, Strain/Indicator: TA100, Metabolic Activation: S-9, Method: STANDARD PLATE): inactive; negative
- mutagenic call (Test System: AMES SALMONELLA TYPHIMURIUM, Strain/Indicator: TA1537, Metabolic Activation: NONE, Method: STANDARD PLATE): inactive; negative
- mutagenic call (Test System: AMES SALMONELLA TYPHIMURIUM, Strain/Indicator: TA1537, Metabolic Activation: S-9, Method: STANDARD PLATE): inactive; negative

Compound: O=NN(c1ccc([N+](=O)[O-])cc1)C1OC[C@@H](O)[C@H](O)[C@H]1O (some centres undefined)
- mutagenic call [9]: active; positive

Compound: Nc1cc(S(=O)(=O)O)ccc1O
- mutagenic call (Test System: AMES SALMONELLA TYPHIMURIUM, Strain/Indicator: TA97, Metabolic Activation: HAMSTER, LIVER, S-9, AROCLOR 1254 (10 OR 30%), Method: PREINCUBATION): inactive; negative
- mutagenic call [1]: inactive; negative
- mutagenic call (Test System: AMES SALMONELLA TYPHIMURIUM, Strain/Indicator: TA97, Metabolic Activation: RAT, LIVER, S-9, AROCLOR 1254 (10 OR 30%), Method: PREINCUBATION): inactive; negative
- mutagenic call [2]: inactive; negative
- mutagenic call [3]: inactive; negative
- mutagenic call [4]: inactive; negative
- mutagenic call [5]: inactive; negative
- mutagenic call [6]: inactive; negative
- mutagenic call (Test System: AMES SALMONELLA TYPHIMURIUM, Strain/Indicator: TA100, Metabolic Activation: RAT, LIVER, S-9 AROCLOR 1254 (10 OR 30%), Method: PREINCUBATION): inactive; negative
- mutagenic call (Test System: AMES SALMONELLA TYPHIMURIUM, Strain/Indicator: TA1535, Metabolic Activation: HAMSTER, LIVER, S-9, AROCLOR 1254 (10 OR 30%), Method: PREINCUBATION): inactive; negative
- mutagenic call [7]: inactive; negative
- mutagenic call [8]: inactive; negative

Compound: Cc1cc(C)c2cc(C)c(N)cc2n1
- mutagenic call (Test System: AMES SALMONELLA TYPHIMURIUM, Strain/Indicator: TA98, Method: STANDARD PLATE): active; positive
